Results on 14 compounds are retold here after ChEMBL document CHEMBL5260817, “Polyamine-based analogs and conjugates as antikinetoplastid agents” (Eur J Med Chem, 2017).

Molecules are shown by their SMILES. pIC50: −log10 of the molar value.

A short description of data set [1]: Inhibition of Trypanosoma cruzi recombinant N-terminal His-tag TryS in presence of ATP.
A short description of data set [2]: Inhibition of Leishmania infantum recombinant N-terminal His-tag TryS in presence of ATP.
Data set [3] is described as follows: Inhibition of Trypanosoma brucei recombinant N-terminal His-tag TryS in presence of ATP.
Data set [4] relates to Trypanosoma brucei rhodesiense. The data set is described as follows: Antiprotozoal activity against Trypanosoma brucei rhodesiense STIB900 strain assessed as trypanocidal activity. The format is functional, organism-based.
A short description of data set [5]: Anticancer activity against rat Myoblast cells assessed as cell growth inhibition. The class given is functional, cell-based.
The test system of data set [6] is Leishmania donovani. Description: Antiprotozoal activity against Leishmania donovani PP75 strain […] assessed as […] at 10 ug/ml relative to control. As to conditions: dose 10 µg/ml. The class given is functional.
In data set [7] the test system is Leishmania amazonensis. The data set is described as follows: Antiprotozoal activity against Leishmania amazonensis PH8 strain […] assessed as […] at 10 ug/ml relative to control. The format is functional. The conditions noted are these: dose 10 µg/ml.
The test system of data set [8] is Leishmania donovani. Description: Antiprotozoal activity against Leishmania donovani LV9 strain amastigotes. The format is functional, organism-based.
The subject of data set [9] is Leishmania braziliensis. The data set is described as follows: Antiprotozoal activity against Leishmania braziliensis 2903 strain […] assessed as […] at 10 ug/ml relative to control. The format is functional. The conditions noted are these: dose 10 µg/ml.
Data set [10] can be described thus: Inhibition of Trypanosoma brucei MetRS in presence of ATP.
Data set [11] is described as follows: Anticancer activity against human CRL-8155 cells assessed as cell growth inhibition. As to conditions: CRL8155. The format is functional, cell-based.
Data set [12] can be described thus: Half life in BALB/c mouse plasma infected with Trypanosoma brucei 427 strain at 25 mg/kg/day, sc measured after 3 days. The class given is ADME, organism-based. The conditions noted are these: time 3 day.
Data set [13] relates to Trypanosoma brucei. Description: Trypanocidal activity against Trypanosoma brucei trypomastigotes. The class given is functional, organism-based.
Data set [14] in a line: Inhibition of Trypanosoma brucei rhodesiense TryR.
The test system of data set [15] is HL-60. Description: Anticancer activity against human HL-60 cells assessed as cell growth inhibition by trypan blue staining based assay. The format is functional.
Data set [16] has as its system Trypanosoma brucei. The data set is described as follows: Antiprotozoal activity against Trypanosoma brucei clone 427-221a. The format is functional, organism-based.
Data set [17] concerns Leishmania major. The data set is described as follows: Antiprotozoal activity against Leishmania major amastigotes. The format is functional, organism-based.
The test system of data set [18] is Trypanosoma cruzi. The data set is described as follows: Antiprotozoal activity against Trypanosoma cruzi amastigotes infected in mouse Peritoneal macrophage cells assessed as growth inhibition at 1.56 uM relative to control. The class given is functional.
The subject of data set [19] is Leishmania donovani. Description: Antiprotozoal activity against Leishmania donovani promastigote at 10 uM relative to control. The format is functional.
The nature of data set [20]: Inhibition of Trypanosoma brucei TryS.
Data set [21] is described as follows: Inhibition of Leishmania infantum TryS in presence of ATP by Malachite green staining based end-point assay.
For data set [22], the system named is Leishmania infantum. Description: Antiprotozoal activity against Leishmania infantum promastigotes. The format is functional, organism-based.
The target in data set [23] is Trypanothione reductase (Trypanosoma brucei brucei, UniProt P39051). The data set is described as follows: Inhibition of Trypanosoma brucei TryR.
Data set [24] deals with Trypanosoma brucei. The data set is described as follows: Trypanocidal activity against Trypanosoma brucei. The class given is functional, organism-based.
Data set [25] can be described thus: Inhibition of TryR (unknown origin). The format is functional.
Data set [26] relates to L6. The data set is described as follows: Anticancer activity against rat L6 cells assessed as cell growth inhibition. The class given is functional, cell-based.
The test system of data set [27] is Trypanosoma brucei rhodesiense. Description: Antiprotozoal activity against Trypanosoma brucei rhodesiense STIB900 strain. The format is functional, organism-based.
The subject of data set [28] is Leishmania donovani. The data set is described as follows: Antiprotozoal activity against Leishmania donovani promastigote measured after 72 hrs by LDH assay. The format is functional, organism-based.
Data set [29] has as its system Trypanosoma brucei brucei. The data set is described as follows: Antiprotozoal activity against Trypanosoma brucei brucei Lab 110 EATRO strain. The format is functional, organism-based.
In data set [30] the test system is Trypanosoma brucei. The data set is described as follows: Antiprotozoal activity against Trypanosoma brucei infected in HepG2 cells. The format is functional, organism-based.
The nature of data set [31]: Inhibition of Trypanosoma brucei His tagged TryS in presence of ATP by LDH/PK assay.
For data set [32], the target named is Trypanothione synthetase (Crithidia fasciculata, UniProt O60993). The data set is described as follows: Inhibition of Crithidia fasciculata His tagged TryS in presence of ATP by LDH/PK assay.
Data set [33] can be described thus: Inhibition of Leishmania infantum His tagged TryS in presence of ATP by LDH/PK assay.
For data set [34], the system named is Leishmania infantum. The data set is described as follows: Antiprotozoal activity against Leishmania infantum. The format is functional, organism-based.
For data set [35], the system named is Leishmania infantum. Description: Antiprotozoal activity against Leishmania infantum amastigotes measured after 5 days. The class given is functional, organism-based. As to conditions: 120 h.
Data set [36] relates to Leishmania infantum. The data set is described as follows: Antiprotozoal activity against Leishmania infantum promastigotes measured after 5 days. The format is functional, organism-based. The conditions noted are these: 120 h.

Sequence of Trypanothione reductase (P39051 whole entry): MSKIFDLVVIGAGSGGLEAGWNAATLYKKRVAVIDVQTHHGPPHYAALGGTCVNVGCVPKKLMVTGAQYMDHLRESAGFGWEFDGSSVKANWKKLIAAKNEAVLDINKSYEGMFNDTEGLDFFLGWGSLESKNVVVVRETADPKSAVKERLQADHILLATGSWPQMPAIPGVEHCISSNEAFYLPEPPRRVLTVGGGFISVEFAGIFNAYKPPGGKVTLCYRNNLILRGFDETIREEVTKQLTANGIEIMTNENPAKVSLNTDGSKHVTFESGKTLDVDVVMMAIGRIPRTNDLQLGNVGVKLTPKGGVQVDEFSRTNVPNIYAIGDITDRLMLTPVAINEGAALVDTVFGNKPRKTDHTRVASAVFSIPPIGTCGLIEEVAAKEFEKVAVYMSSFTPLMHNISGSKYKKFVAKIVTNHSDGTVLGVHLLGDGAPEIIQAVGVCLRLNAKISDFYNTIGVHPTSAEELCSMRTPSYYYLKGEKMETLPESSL
Sequence of Trypanothione synthetase (O60993 whole entry): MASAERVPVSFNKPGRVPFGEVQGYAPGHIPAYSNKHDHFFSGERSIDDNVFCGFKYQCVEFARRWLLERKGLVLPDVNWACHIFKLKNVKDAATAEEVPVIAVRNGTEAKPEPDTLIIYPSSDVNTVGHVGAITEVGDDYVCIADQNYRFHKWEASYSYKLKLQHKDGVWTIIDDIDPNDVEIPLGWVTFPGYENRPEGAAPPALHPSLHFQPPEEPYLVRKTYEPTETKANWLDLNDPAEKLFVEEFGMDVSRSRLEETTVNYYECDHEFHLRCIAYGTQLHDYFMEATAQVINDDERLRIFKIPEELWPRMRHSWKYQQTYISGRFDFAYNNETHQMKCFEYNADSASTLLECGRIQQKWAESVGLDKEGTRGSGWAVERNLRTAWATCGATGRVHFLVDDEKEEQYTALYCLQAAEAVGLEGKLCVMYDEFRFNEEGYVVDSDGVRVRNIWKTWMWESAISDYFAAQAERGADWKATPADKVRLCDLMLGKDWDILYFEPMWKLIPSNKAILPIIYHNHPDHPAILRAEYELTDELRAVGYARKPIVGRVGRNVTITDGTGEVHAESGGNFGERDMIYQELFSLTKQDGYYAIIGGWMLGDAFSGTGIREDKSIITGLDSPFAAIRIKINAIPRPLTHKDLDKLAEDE

Turning to `CC(C)c1ccc(CNCCCCCCCCCCNCc2ccc(C(C)C)cc2)cc1`, the pIC50 in data set [1], in [2] and in data set [3] was 4.52 in each case.
As for `CN(C)CCCNc1cc(Cl)ccc1Sc1ccc(C(F)(F)F)cc1`, the pIC50 in data set [4] was 5.92; in [5] it was 5.01.
Turning to `CCN(CC)CCCCCCNc1cc(OC)cc2c(C)ccnc12` [SITAMAQUINE], the Activity in [6], in data set [7] and in [9] was 80% in each case. This compound also showed a pIC50 in data set [8] of 5.40.
As for `Oc1cc(NCCCNCc2cc(Cl)cc(Cl)c2)nc2ccccc12`, the pIC50 in data set [10] is 8.10; in data set [11], less than 4.70; in data set [13], 8.40. In data set [12], the half-life is 60 min.
In [14], `C[N+](C)(CCCNc1cc(Cl)ccc1Sc1ccccc1)Cc1ccc(Cl)c(Cl)c1` gave a pIC50 of 5.30.
As to `COc1ccc2nc3cc(Cl)ccc3c(NCCCN(C)CCCNc3c4ccc(Cl)cc4nc4ccc(OC)cc34)c2c1`, the figures for the pIC50 in data set [15], in data set [16] and in data set [17] were 6.00, 9.00 and 5.22, respectively.
For the compound `COc1ccc2nc3cc(Cl)ccc3c(NCCCCCCCCNc3c4ccc(Cl)cc4nc4ccc(OC)cc34)c2c1`, the inhibition at 1.56 µM in [18] worked out at 70%. The compound also yielded an inhibition at 10 µM in [19] of 99%.
As to `CNCCNC(=O)CN1C(=O)Cc2c([nH]c3ccc(C(F)(F)F)cc23)-c2ccccc21`, the pIC50 in data set [20] was 4.12; in [21] it was 6.46; in data set [22], 3.95.
On to `Clc1ccc2c(c1)N(CCCN1CCN(CCCc3ccccc3)CC1)c1ccccc1S2`, for which the figures for the pIC50 in data set [23] and in [24] were 6.12 and 6.11, respectively.
For the compound `C[N+](C)(CCCNc1cc(Cl)ccc1Sc1ccccc1)Cc1ccc([N+](=O)[O-])o1`, the pIC50 in data set [25] was 5.05; in data set [26], less than 3.77; in data set [27], 6.22.
As to `N=C(NC1CCCCCC1)c1ccc(N2CCN(c3ccc(C(=N)NC4CCCCCC4)cc3)CC2)cc1`, the pIC50 was 5.32 in [28] and 7.74 in [29].
`COc1ccc(CNCCNCc2ccc(OC)cc2)cc1` gave a pIC50 in data set [30] of no less than 5.00.
On to `CNCCNC(=O)CN1C(=O)Cc2c([nH]c3ccc(Br)cc23)-c2ccc(Cl)cc21`, for which the pIC50 in [31] was 4.23; in data set [32], 7.52; in data set [33], 6.82; in [34] it was 4.90.
`O=C1c2cccc3cccc(c23)C(=O)N1CCCNCCCCNCCCN1C(=O)c2cccc3cccc(c23)C1=O`: the pIC50 in [35] and in data set [36] was 6.00 throughout.
